# Laboratory results published in BindingDB's records for doi:10.1021/jm0409019 (Institute of Chemical Sciences and Engineering, 2005).
# Assays:
# [1] = biological target: alpha-mannosidase (Canavalia ensiformis); experiment: Concentration of compound inhibiting alpha-Mannosidase isolated from Jack bean
# [2] = biological target: alpha-mannosidase (Canavalia ensiformis); experiment: Binding affinity towards alpha-Mannosidase isolated from Jack bean
# [3] = biological target: alpha-mannosidase (Canavalia ensiformis); experiment: Inhibition of alpha-Mannosidase isolated from Jack bean
# [4] = biological target: alpha-mannosidase (Canavalia ensiformis); experiment: Binding affinity towards alpha-Mannosidase isolated from jack bean
SMILES,IC50 [1] [µM],Ki [2] [µM],IC50 [3] [µM],Ki [4] [µM]
"O=C(NCC(NC[C@H]1NC[C@H](O)[C@@H]1O)c1ccccc1)c1cccc(Br)c1 (stereo partly drawn) [3-Bromo-N-{2-[((2R,3R,4S)-3,4-dihydroxy-pyrrolidin-2-ylmethyl)-amino]-2-phenyl-ethyl}-benzamide]",89,,,
"O[C@H]1[C@@H](O)CN[C@@H]1CNC1CCc2ccccc21 (stereo partly drawn) [(2R,3R,4S)-2-((R)-Indan-1-ylaminomethyl)-pyrrolidine-3,4-diol]",17,2.3,,
"O[C@H]1[C@@H](O)CN[C@@H]1CNC(COCc1ccccc1)c1ccccc1 (stereo partly drawn) [(2R,3R,4S)-2-[((R)-2-Benzyloxy-1-phenyl-ethylamino)-methyl]-pyrrolidine-3,4-diol]",,,58,16
"O[C@H]1[C@@H](O)CN[C@@H]1CN[C@@H](c1ccccc1)[C@H](O)c1ccccc1 [(2R,3R,4S)-2-[((R)-Phenyl-1-(S)-2-hydroxy-2-phenyl-ethylamino)-methyl]-pyrrolidine-3,4-diol]",128,,,
"O[C@H]1[C@@H](O)CN[C@@H]1CN[C@H](c1ccccc1)[C@@H](O)c1ccccc1 [(2R,3R,4S)-2-[((S)-Phenyl-1-(R)-2-hydroxy-2-phenyl-ethylamino)-methyl]-pyrrolidine-3,4-diol]",110,,,
"OCC(NC[C@H]1N[C@H](CO)[C@H](O)[C@@H]1O)c1ccccc1 (stereo partly drawn) [(2R,3S,4R,5R)-2-Hydroxymethyl-5-[((R)-2-hydroxy-1-phenyl-ethylamino)-methyl]-pyrrolidine-3,4-diol]",4.2,1.35,,
